According to patent US11445724B2, “Insecticidal compounds” (SYNGENTA PARTICIPATIONS AG, priority 2013, dated 2022):

Assays:
Format in all cases: in vivo
[1] = system: Diabrotica balteata (Corn root worm); test: Diabrotica balteata (Corn root worm) larval mortality, artificial diet in 24-well MTP; details: 120 h, application rate 200 ppm (concentration in well 18 ppm), L2 larvae, larval mortality after 5 days
[2] = system: Myzus persicae (Green peach aphid); test: Myzus persicae (Green peach aphid) mortality, sprayed sunflower leaf discs; details: foliar, 144 h, 200 ppm spray on sunflower leaf discs, mixed ages, mortality 6 DAT
[3] = system: Plutella xylostella (Diamond back moth); test: Plutella xylostella (Diamond back moth) larval mortality, artificial diet in 24-well MTP; details: 144 h, application rate 200 ppm (concentration in well 18 ppm), L2 larvae, larval mortality after 6 days
[4] = system: Spodoptera littoralis (Egyptian cotton leafworm); test: Spodoptera littoralis (Egyptian cotton leafworm) mortality, sprayed cotton leaf discs; details: foliar, 72 h, 200 ppm spray on cotton leaf discs, L1 larvae, mortality 3 DAT
[5] = system: Tetranychus urticae (Two-spotted spider mite); test: Tetranychus urticae (Two-spotted spider mite) mortality, sprayed bean leaf discs; details: foliar, 192 h, 200 ppm spray on bean leaf discs, mixed ages, egg, larval and adult mortality after 8 days
[6] = system: Thrips tabaci (Onion thrips); test: Thrips tabaci (Onion thrips) mortality, sprayed sunflower leaf discs; details: foliar, 168 h, 200 ppm spray on sunflower leaf discs, mixed ages, mortality after 7 days
[7] = system: Myzus persicae (Green peach aphid); test: Myzus persicae (Green peach aphid) mortality, test compounds mixed with Sucrose solution under Parafilm; details: 120 h, 12.5 ppm in Sucrose solution, infested pea seedlings on Parafilm, mortality 5 days after infestation

COc1c(NC(=O)c2ccccc2C)cccc1C(=O)Nc1c(Br)cc(C(F)(C(F)(F)F)C(F)(F)F)cc1OC(F)F [Compound 35]
≥ 80%: pest or weed control at 200 ppm [1] | pest or weed control at 200 ppm [2] | pest or weed control at 200 ppm [3] | pest or weed control at 200 ppm [4] | pest or weed control at 200 ppm [5] | pest or weed control at 200 ppm [6]

COc1c(NC(=O)c2ccccc2Cl)cccc1C(=O)Nc1c(Br)cc(C(F)(C(F)(F)F)C(F)(F)F)cc1OC(F)F [Compound 37]
≥ 80%: pest or weed control at 200 ppm [1] | pest or weed control at 200 ppm [2] | pest or weed control at 200 ppm [3] | pest or weed control at 200 ppm [4] | pest or weed control at 200 ppm [5] | pest or weed control at 200 ppm [6]

COc1c(NC(=O)c2ccc(F)cc2C)cccc1C(=O)Nc1c(Br)cc(C(F)(C(F)(F)F)C(F)(F)F)cc1OC(F)F [Compound 43]
≥ 80%: pest or weed control at 200 ppm [1] | pest or weed control at 200 ppm [2] | pest or weed control at 200 ppm [3] | pest or weed control at 200 ppm [4] | pest or weed control at 200 ppm [5] | pest or weed control at 200 ppm [6]

Cc1ccccc1C(=O)Nc1cccc(C(=O)Nc2c(Cl)cc(C(F)(C(F)(F)F)C(F)(F)F)cc2OC(F)F)c1F [Compound 46]
≥ 80%: pest or weed control at 200 ppm [1] | pest or weed control at 200 ppm [3] | pest or weed control at 200 ppm [4] | pest or weed control at 200 ppm [5] | pest or weed control at 200 ppm [6]

O=C(Nc1cccc(C(=O)Nc2c(Cl)cc(C(F)(C(F)(F)F)C(F)(F)F)cc2OC(F)F)c1F)c1ccccc1Cl [Compound 48]
≥ 80%: pest or weed control at 200 ppm [1] | pest or weed control at 200 ppm [2] | pest or weed control at 200 ppm [3] | pest or weed control at 200 ppm [4] | pest or weed control at 200 ppm [5] | pest or weed control at 200 ppm [6]

O=C(Nc1cccc(C(=O)Nc2c(Cl)cc(C(F)(C(F)(F)F)C(F)(F)F)cc2OC(F)F)c1F)c1ccc(F)c(C(F)(F)F)c1 [Compound 62]
≥ 80%: pest or weed control at 200 ppm [1] | pest or weed control at 12.5 ppm [7] | pest or weed control at 200 ppm [3] | pest or weed control at 200 ppm [4] | pest or weed control at 200 ppm [5]

COc1c(NC(=O)c2ccc(F)cc2F)cccc1C(=O)Nc1c(Br)cc(C(F)(C(F)(F)F)C(F)(F)F)cc1OC(F)F [Compound 71]
≥ 80%: pest or weed control at 200 ppm [1] | pest or weed control at 200 ppm [2] | pest or weed control at 200 ppm [3] | pest or weed control at 200 ppm [4] | pest or weed control at 200 ppm [5] | pest or weed control at 200 ppm [6]

O=C(Nc1cccc(C(=O)Nc2c(Cl)cc(C(F)(C(F)(F)F)C(F)(F)F)cc2OC(F)F)c1F)c1ccc(F)cc1Cl [Compound 74]
≥ 80%: pest or weed control at 200 ppm [1] | pest or weed control at 12.5 ppm [7] | pest or weed control at 200 ppm [3] | pest or weed control at 200 ppm [4] | pest or weed control at 200 ppm [5] | pest or weed control at 200 ppm [6]

COc1c(NC(=O)c2ccccc2C)cccc1C(=O)Nc1c(Cl)cc(C(F)(C(F)(F)F)C(F)(F)F)cc1OC(F)F [Compound 77]
≥ 80%: pest or weed control at 200 ppm [1] | pest or weed control at 200 ppm [3] | pest or weed control at 200 ppm [4] | pest or weed control at 200 ppm [5] | pest or weed control at 200 ppm [6]

COc1c(NC(=O)c2ccccc2Cl)cccc1C(=O)Nc1c(Cl)cc(C(F)(C(F)(F)F)C(F)(F)F)cc1OC(F)F [Compound 79]
≥ 80%: pest or weed control at 200 ppm [1] | pest or weed control at 200 ppm [2] | pest or weed control at 200 ppm [3] | pest or weed control at 200 ppm [4] | pest or weed control at 200 ppm [5] | pest or weed control at 200 ppm [6]

COc1c(NC(=O)c2ccc(OC(F)(F)F)cc2)cccc1C(=O)Nc1c(Cl)cc(C(F)(C(F)(F)F)C(F)(F)F)cc1OC(F)F [Compound 87]
≥ 80%: pest or weed control at 200 ppm [1] | pest or weed control at 200 ppm [3] | pest or weed control at 200 ppm [4] | pest or weed control at 200 ppm [5] | pest or weed control at 200 ppm [6]

COc1c(NC(=O)c2ccccc2)cccc1C(=O)Nc1c(Cl)cc(C(F)(C(F)(F)F)C(F)(F)F)cc1OC(F)F [Compound 92]
≥ 80%: pest or weed control at 200 ppm [1] | pest or weed control at 200 ppm [2] | pest or weed control at 200 ppm [3] | pest or weed control at 200 ppm [4] | pest or weed control at 200 ppm [5] | pest or weed control at 200 ppm [6]

COc1c(NC(=O)c2ccccc2C(F)(F)F)cccc1C(=O)Nc1c(Cl)cc(C(F)(C(F)(F)F)C(F)(F)F)cc1OC(F)F [Compound 94]
≥ 80%: pest or weed control at 200 ppm [1] | pest or weed control at 200 ppm [2] | pest or weed control at 200 ppm [3] | pest or weed control at 200 ppm [4] | pest or weed control at 200 ppm [5] | pest or weed control at 200 ppm [6]

COc1c(NC(=O)c2ccc(F)cc2Cl)cccc1C(=O)Nc1c(Cl)cc(C(F)(C(F)(F)F)C(F)(F)F)cc1OC(F)F [Compound 95]
≥ 80%: pest or weed control at 200 ppm [1] | pest or weed control at 200 ppm [2] | pest or weed control at 200 ppm [3] | pest or weed control at 200 ppm [4] | pest or weed control at 200 ppm [5] | pest or weed control at 200 ppm [6]

COc1c(NC(=O)c2ccc(F)cc2F)cccc1C(=O)Nc1c(Cl)cc(C(F)(C(F)(F)F)C(F)(F)F)cc1OC(F)F [Compound 97]
≥ 80%: pest or weed control at 200 ppm [2] | pest or weed control at 200 ppm [3] | pest or weed control at 200 ppm [4] | pest or weed control at 200 ppm [5] | pest or weed control at 200 ppm [6]

CCN(C(=O)c1ccccc1Cl)c1cccc(C(=O)Nc2c(Cl)cc(C(F)(C(F)(F)F)C(F)(F)F)cc2OC(F)F)c1F [Compound 112]
≥ 80%: pest or weed control at 200 ppm [1] | pest or weed control at 200 ppm [2] | pest or weed control at 200 ppm [3] | pest or weed control at 200 ppm [4] | pest or weed control at 200 ppm [5] | pest or weed control at 200 ppm [6]

CCN(C(=O)c1ccccc1F)c1cccc(C(=O)Nc2c(Br)cc(C(F)(C(F)(F)F)C(F)(F)F)cc2OC(F)F)c1OC [Compound 129]
≥ 80%: pest or weed control at 200 ppm [1] | pest or weed control at 200 ppm [3] | pest or weed control at 200 ppm [4] | pest or weed control at 200 ppm [5] | pest or weed control at 200 ppm [6]

CCN(C(=O)c1ccc(F)cc1C)c1cccc(C(=O)Nc2c(Br)cc(C(F)(C(F)(F)F)C(F)(F)F)cc2OC(F)F)c1OC [Compound 133]
≥ 80%: pest or weed control at 200 ppm [1] | pest or weed control at 200 ppm [3] | pest or weed control at 200 ppm [4] | pest or weed control at 200 ppm [5] | pest or weed control at 200 ppm [6]

CCN(C(=O)c1ccccc1)c1cccc(C(=O)Nc2c(Br)cc(C(F)(C(F)(F)F)C(F)(F)F)cc2OC(F)F)c1OC [Compound 138]
≥ 80%: pest or weed control at 200 ppm [1] | pest or weed control at 200 ppm [2] | pest or weed control at 12.5 ppm [7] | pest or weed control at 200 ppm [3] | pest or weed control at 200 ppm [4] | pest or weed control at 200 ppm [6]

CCN(C(=O)c1ccccc1OC)c1cccc(C(=O)Nc2c(Cl)cc(C(F)(C(F)(F)F)C(F)(F)F)cc2OC(F)F)c1OC [Compound 154]
≥ 80%: pest or weed control at 200 ppm [1] | pest or weed control at 200 ppm [3] | pest or weed control at 200 ppm [4] | pest or weed control at 200 ppm [5] | pest or weed control at 200 ppm [6]

CCN(C(=O)c1ccccc1)c1cccc(C(=O)Nc2c(Cl)cc(C(F)(C(F)(F)F)C(F)(F)F)cc2OC(F)F)c1OC [Compound 155]
≥ 80%: pest or weed control at 200 ppm [1] | pest or weed control at 200 ppm [2] | pest or weed control at 12.5 ppm [7] | pest or weed control at 200 ppm [3] | pest or weed control at 200 ppm [4] | pest or weed control at 200 ppm [6]

CCN(C(=O)c1cccc(F)c1F)c1cccc(C(=O)Nc2c(Cl)cc(C(F)(C(F)(F)F)C(F)(F)F)cc2OC(F)F)c1OC [Compound 159]
≥ 80%: pest or weed control at 200 ppm [1] | pest or weed control at 200 ppm [2] | pest or weed control at 12.5 ppm [7] | pest or weed control at 200 ppm [3] | pest or weed control at 200 ppm [4] | pest or weed control at 200 ppm [6]
